From BindingDB's records for doi:10.7270/Q2K072NW (Sanford-Burnham Center for Chemical Genomics, 2008) come the findings set out here.

Where only a bound is given, the exact number is not on record here.

This assay has as its target T1, Bcl-2-related protein A1 (Mus musculus, UniProt Q07440).
T1 sequence (Q07440 whole entry): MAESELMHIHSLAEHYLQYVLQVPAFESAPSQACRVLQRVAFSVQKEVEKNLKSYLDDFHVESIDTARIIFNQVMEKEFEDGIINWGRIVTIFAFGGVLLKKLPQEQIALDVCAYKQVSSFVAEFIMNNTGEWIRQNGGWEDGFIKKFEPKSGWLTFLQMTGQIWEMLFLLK
As to the kind of experiment: Bfl-1 inhibitors blocking BH3 peptide binding, confirmation, biochemical, TR-FRET, mouse Bfl-1 (AID 621).
As to `c1ccc(-c2ccc(C3=Nc4ncnn4C(c4ccco4)C3)cc2)cc1` (configuration not stated), the IC50 was greater than 100 µM.

In the case of `O=C1C(=O)N(c2ncccn2)C(c2cccc(Cl)c2)C1C(=O)c1ccco1` (configuration not stated) [2-(3-chlorophenyl)-3-(furan-2-carbonyl)-4-hydroxy-1-pyrimidin-2-yl-2H-pyrrol-5-one], the IC50 was greater than 100 µM.

In the case of `OCCCc1nc2n(n1)C(c1cccs1)CC(c1ccccc1)=N2` (configuration not stated) [3-(5-phenyl-7-thiophen-2-yl-1,7-dihydro-[1,2,4]triazolo[1,5-a]pyrimidin-2-yl)-1-propanol], the half-maximal inhibitory concentration (IC50) was greater than 100 µM.

Take `COCC=Nc1c(Cl)c(O)n(-c2ccc(Cl)c(Cl)c2)c1O` [3-chloranyl-1-(3,4-dichlorophenyl)-4-(2-methoxyethylamino)pyrrole-2,5-dione]: the IC50 turned out to be 4.96 µM.

For `O=C1C(=Nc2ccc(F)cc2)C(Cl)C(=O)N1c1ccc(Cl)c(Cl)c1` (configuration not stated) [3-chloranyl-1-(3,4-dichlorophenyl)-4-[(4-fluorophenyl)amino]pyrrole-2,5-dione], the IC50 is 96.5 µM.

With `Cc1ccc(N=C2C(=O)N(c3ccc(C)cc3)C(=O)C2Cl)cc1` (configuration not stated) [3-chloranyl-1-(4-methylphenyl)-4-[(4-methylphenyl)amino]pyrrole-2,5-dione], the half-inhibitory concentration (IC50) came to 2.54 µM.

For the compound `COc1ccc(N2C(=O)C(=Nc3c(C)n(C)n(-c4ccccc4)c3=O)C(Cl)C2=O)cc1` (configuration not stated) [3-chloranyl-4-[(1,5-dimethyl-3-oxidanylidene-2-phenyl-pyrazol-4-yl)amino]-1-(4-methoxyphenyl)pyrrole-2,5-dione], the IC50 is greater than 100 µM.

Consider `CCCN1CCC2=C(C#N)C(=N)C(C#N)(C#N)C(c3cccc(OC)c3OC)C2C1` (configuration not stated) [6-amino-8-(2,3-dimethoxyphenyl)-2-propyl-1,3,8,8a-tetrahydroisoquinoline-5,7,7-tricarbonitrile], for which the half-inhibitory concentration (IC50) was greater than 100 µM.

Regarding `CN1CCC2=C(C#N)C(=N)C(C#N)(C#N)C(c3cccc(Cl)c3Cl)C2C1` (configuration not stated) [6-azanyl-8-[2,3-bis(chloranyl)phenyl]-2-methyl-1,3,8,8a-tetrahydroisoquinoline-5,7,7-tricarbonitrile], the half-maximal inhibitory concentration (IC50) was greater than 100 µM.

In turn, `CN1CCC2=C(C#N)C(=N)C(C#N)(C#N)[C@H](c3cccc(Cl)c3)C2C1` (stereo partly drawn) [(8S)-6-amino-8-(3-chlorophenyl)-2-methyl-1,3,8,8a-tetrahydroisoquinoline-5,7,7-tricarbonitrile] gave an IC50 greater than 100 µM.

`Oc1c(Cl)c(N=Cc2ccccc2)c(O)n1-c1ccc(Cl)c(Cl)c1` [MLS-0067125.0001] came in with an IC50 of 73.7 µM.

Compound `Cc1ccc(C2C3CN(C(C)C)CCC3=C(C#N)C(=N)C2(C#N)C#N)cc1` (configuration not stated) [SMR000034220] showed an IC50 greater than 100 µM.

The IC50 is the concentration that gives 50% inhibition. A high value points to lower potency.
